Measurements: paper PMC4055767, “Selective Chemical Inhibition of agr Quorum Sensing in Staphylococcus aureus Promotes Host Defense with Minimal Impact on Resistance” (PLoS Pathogens, 2014)

Tests used:
AgrA = molecular target: T1, AgrA (Staphylococcus aureus, UniProt P0A0I7); experiment: AgrA-dependent agr::P3 lux reporter in agr-null S. aureus ([…]), positive control; assay type: cell-based
T1 construct: plasmid-encoded AgrA (pCM63) in S. aureus Δagr reporter strain AH3048

[1] = molecular target: AgrA (AgrAC, C-terminal DNA binding domain) (Staphylococcus aureus, UniProt P0A0I7); experiment: EMSA with purified AgrAC and FAM-labeled […] bp DNA duplex; supported by AgrA-driven agr::P3 lux reporter in agr-null S. aureus
Sequence of AgrA (AgrAC, C-terminal DNA binding domain) (P0A0I7 137-238): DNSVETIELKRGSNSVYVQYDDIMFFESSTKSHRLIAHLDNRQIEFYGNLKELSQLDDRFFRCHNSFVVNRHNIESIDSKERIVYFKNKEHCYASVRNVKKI

T1 sequence (P0A0I7 whole entry): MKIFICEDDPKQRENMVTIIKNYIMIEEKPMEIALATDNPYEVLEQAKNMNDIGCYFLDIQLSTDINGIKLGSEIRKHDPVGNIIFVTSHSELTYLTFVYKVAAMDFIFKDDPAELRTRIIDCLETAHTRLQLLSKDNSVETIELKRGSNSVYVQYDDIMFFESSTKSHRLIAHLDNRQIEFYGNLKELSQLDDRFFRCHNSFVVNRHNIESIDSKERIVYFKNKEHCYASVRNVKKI

Compound | AgrA-dependent agr::P3 lux reporter in agr-null S. aureus (1.56-100 μM), positiv (AgrA) | IC50 [1]
O=C(O)c1cc(-c2ccc(F)cc2F)ccc1O [diflunisal] | diflunisal and 4-phenoxyphenol, compounds published by others as inhibitors of AgrAc DNA binding ability | 
CC(C)c1ccc(S(=O)(=O)c2n[nH]n3c2nc(=O)c2ccccc23)cc1 [savirin, 3-(4-propan-2-ylphenyl) sulfonyl-1H-triazolo [1,5-a] quinazolin-5-one] |  | 83 µM
